From patent publication US20070071773A1, “Compositions and methods for the treatment and prophylaxis of infections caused by gram positive bacteria” (priority 2002, published 2007)

What was measured:
[1] = system: trypsin-like GAS protease; test: Degradation of IL-8 by JS95 supernatant (Western blot, ELISA); assay type: biochemical, Group A Streptococcus (GAS); conditions: for IL-8 degradation (ELISA): JS95 supernatant pretreated 30 min 37° C.: 0.3 μM aprotinin, 1 mM benzamidine, 100 μg/ml soybean trypsin inhibitor, FIG. 15A
Description: […] was grown in the absence and presence of SilCR (50 μg/ml). IL-8 was incubated with the indicated supernatant fractions and then subjected to 18% SDS-PAGE. The separated protein bands were electro-transferred to a nitrocellulose membrane. Anti-IL-8 antibody and a secondary antibody conjugated to horseradish peroxidase were used to detect IL-8. The number of the lane represents incubation of IL-8 with: 1, DMEM+FCS (control); 2, JS95 supernatant; 3, JS95 supernatant grown in the presence of SilCR; 4, JS95 supernatant, pretreated with pefabloc SC; 5, supernatant of JS95 grown in the absence of SilCR, then 50 μg/ml of SilCR was added to the degradation assay.
15A The column numbers represent the ELISA results after incubation of IL-8 with: 1, DMEM+FCS (control); and the supernatants of: 2, JS95; 3, JS95 grown in the presence of SilCR; 4, JS95 pretreated with aprotenin; 5, JS95 pretreated with soybean trypsin inhibitor; 6, JS95 pretreated with benzamidine. The background of the ELISA assay (0.08±0.004) was subtracted from the shown results. The data represent the mean ± SD, of three separate experiments.
(§1) A. Cell culture of JS95 strain was grown in THY to an OD600 of 0.2. To determine the effect of SilCR on chemokine proteolysis, the culture was split into two equal fractions, of which one received SilCR (25 μg/ml). Both fractions were further incubated until they reached an OD600 of 0.3. Bacteria were washed twice with sterile PBS and once with DMEM containing 10% FCS. The washed pellets were re-suspended in DMEM supplemented with FCS to their original volumes. SilCR (50 μg/ml) was added to the fraction that was grown in the presence of SilCR, and the two fractions were further incubated for 1 h at 37° C. Supernatants were collected after centrifugation. The proteolysis reaction contained: 0.08 ml of each supernatant, 100 ng of recombinant human IL-8/CXCL8 (R&D systems, Minneapolis, Minn.) or 30 ng of recombinant murine MIP-2 (R& D systems, Minneapolis, Minn.), 20 mM MOPS pH=7.2 in a final volume of 0.1 ml. The reaction was conducted for 1 h at 37° C., and stopped by boiling for 1 min.
(§2) B. For testing protease inhibitors, the supernatants were pre-incubated with the inhibitor for 30 min at 37° C., followed by the proteolysis reaction. The following concentrations of inhibitors were used: 4 mM pefabloc SC; 0.5 mM PMSF; 0.3 μM aprotinin; 1 mM benzamidine; 100 μg/ml soybean trypsin inhibitor (STI).
C. Proteolysis of chemokines was determined by ELISA and Dot-blot. IL-8 content was quantified by ELISA using the Quantikine kit for determination of human IL-8 (R&D Systems, Minneapolis, Minn.) according to the manufacturer's instructions.

[2] = system: trypsin-like GAS protease; test: Degradation of MIP-2 by JS95 supernatant (dot blot); assay type: biochemical, Group A Streptococcus (GAS); conditions: pretreatment of JS95 supernatant: 4 mM pefabloc SC; 0.3 μM aprotinin; 1 mM benzamidine; 100 μg/ml STI
Description: 15B. The dots in the control panel represent MIP-2 that was incubated in DMEM+FCS, in the absence of JS95 supernatant and spotted at the following doses: 30, 15, 7.5, 3.75 and 1.87 ng (from left to right). The dots in the lower panel were generated in the same way, except that MIP-2 was previously incubated with JS95 supernatant.
as §1, §2
Samples of 50 μl from the proteolysis reaction were diluted in PBS to a final volume of 0.5 ml and passed through a 96-wells dot-blotter onto a 0.2-μm-nitrocellulose membrane. Detection of MIP-2 was performed using anti-mouse MIP-2 polyclonal antibodies (R&D Systems Minneapolis, Minn.) followed by addition of anti-mouse IgG-HRP antibody. Dots were detected using the SuperSignal West Pico chemiluminescent detection kit (Pierce, Rockford, Ill.).

| Molecule | IL-8 degradation (ELISA) [1] | MIP-2 degradation [2] | IL-8 degradation (Western blot) ([1]; JS95 supernatant pretreated 30 min 37° C. with 4 mM pefabloc SC, FIG. 14) |
| --- | --- | --- | --- |
| N=C(N)c1ccccc1 [benzamidine] | completely abrogated | blocked |  |
| Cl.NCCc1ccc(S(=O)(=O)F)cc1 [pefabloc SC] |  | blocked | almost completely abolished |
| aprotinin | completely inhibited | blocked |  |
| soybean trypsin inhibitor | completely abrogated | blocked |  |
